Assay results: PMC8785525 (Malaria Journal, 2022)
≈ marks a conversion by molar mass, not a printed value. Read-outs that look alike come from different tables or passages of the source. Each block holds one compound with its values, some of them ahead of it.

Columns and labels:
P. falciparum 3D7 = assay: In vitro anti-malarial activity, SYBR-Green I fluorescence assay, strain 3D7; type: cell-based; conditions: Plasmodium falciparum, 3D7, Erythrocyte, 72 h, read-out: Inhibition IC50 mean ± SD
Description: (§1) In the in vitro anti-malarial bioassay, strains of P. falciparum (chloroquine sensitive 3D7 and multidrug resistant Dd2) were kept in continuous culture in human erythrocytes in RPMI 1640 medium supplemented with 0.5% Albumax I/II and […] hypoxanthine according to the method previously described by Trager and Jensen. Synchronization of parasites was conducted using sorbitol treatment and parasitaemia was microscopically determined in Giemsa-stained smears.
(§2) In vitro anti-malarial activity assay was performed as previously described. Chloroquine and artemisinin were used as standard anti-malarial drugs, and equivalent free DQ used as a control and dissolved in dimethylsulfoxide (DMSO). Liposomes were diluted into a series of 10 µl different DQ concentrations for the in vitro assay. Each sample (10 µl) was mixed with 90 µl culture medium containing P. falciparum (0.5% parasitaemia and 2% haematocrit) and placed in 96-well microplates, which were incubated for 72 h with 5% CO2 at 37 °C. Lysis buffer (100 µl) containing 0.2 µl SYBR- Green I was then added to each well of the plate and incubated for additional 1.5 h at 37 °C. Fluorescence signal was detected at 488 nm (excitation) and 520 nm (emission) in a microplate reader (Synerfy H1, Bio Tek, USA). The intensity of fluorescence generated by the binding of SYBR-Green I to Plasmodium DNA is relative to the growth of parasites. IC50 values were derived from dose–response curves evaluated with software GraphPad.

P. falciparum Dd2 = assay: In vitro anti-malarial activity, SYBR-Green I fluorescence assay, strain Dd2; type: cell-based; conditions: Plasmodium falciparum, DD2, Erythrocyte, 72 h, read-out: Inhibition IC50 mean ± SD
Description: as §1, §2

[1] = set-up: method as in PMID 21914160; conditions: cited from earlier work
Plasmodium parasites = test system: Plasmodium parasites; set-up: method as in PMID 28491482; conditions: cited from earlier work
[2] = infected human red blood cells, DQ concentration for liposomes

IC50 (P. falciparum 3D7; [2]): 16.4 ± 5.8 nM | IC50 (P. falciparum Dd2; [2]): 18.5 ± 0.5 nM
SMILES: C[C@@H]1CC[C@H]2[C@@H](C)C(=O)O[C@@H]3O[C@@]4(C)CC[C@@H]1[C@]32OO4 [Artemisinin]

IC50 (P. falciparum 3D7): 23.75 ± 0.06 nM | IC50 (P. falciparum Dd2): 185 ± 16.2 nM
SMILES: CCN(CC)CCCC(C)Nc1ccnc2cc(Cl)ccc12 (stereo not drawn) [Chloroquine]

SMILES: C[C@H]1[C@@H](O)O[C@@H]2O[C@@]3(C)CC[C@H]4[C@H](C)CC[C@@H]1[C@@]24OO3 [DHA, dihydro-artemisinin]
half-life ([1]; DHA formed from intravenous artesunate): 30 to 60 min

IC50 (P. falciparum 3D7; [2]): 1.63 ± 0.13 nM | IC50 (P. falciparum Dd2; [2]): 1.57 ± 0.49 nM
SMILES: CCCCCCCCCCOc1cc2c(O)c(C(=O)OCC)cnc2cc1OCC [DQ in DMSO, Decoquinate]
minimum inhibitory concentration (MIC) (Plasmodium parasites): 5.12 ng/mL (≈ 0.0123 µM)

SMILES: C[C@H]1[C@H](OC(=O)CCC(=O)O)O[C@@H]2O[C@@]3(C)CC[C@H]4[C@H](C)CC[C@@H]1[C@@]24OO3 [artesunate]
half-life ([1]; intravenous artesunate, parent AS): less than 15 min
